Reference: US20070129371A1, “Novel ethylenediamine derivatives” (Daiichi Pharmaceutical Co., Ltd., priority 2002, published 2007)
Structures can show the parent of a compound that is named as a salt.

The molecules below were run against T1, human FXa (Homo sapiens, UniProt P00742) (assay: Determination of human FXa-inhibiting effect (IC50 value)). Details: S-2222 chromogenic substrate, absorbance at 405 nm, Tris buffer pH 7.4, room temperature.
T1 construct: purchased Enzyme Research Laboratories, Inc
T1 sequence (P00742 235-488 limits assumed): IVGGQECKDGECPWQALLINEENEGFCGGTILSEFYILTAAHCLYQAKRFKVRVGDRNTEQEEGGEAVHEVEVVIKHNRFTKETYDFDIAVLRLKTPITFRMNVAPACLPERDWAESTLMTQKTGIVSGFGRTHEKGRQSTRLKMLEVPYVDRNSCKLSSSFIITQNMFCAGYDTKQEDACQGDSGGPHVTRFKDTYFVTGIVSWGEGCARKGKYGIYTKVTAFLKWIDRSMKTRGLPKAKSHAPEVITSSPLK
T1 sequence (P00742 41-179 partner limits assumed): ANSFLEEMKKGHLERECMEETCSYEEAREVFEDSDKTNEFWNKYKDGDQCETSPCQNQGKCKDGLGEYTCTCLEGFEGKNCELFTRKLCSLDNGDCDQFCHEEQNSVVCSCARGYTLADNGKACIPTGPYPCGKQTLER
Format: biochemical
Method: A 5% DMSO solution (10 μl) of each test compound, the concentrations of which had been suitably set stepwise, and Tris buffer (100 mM Tris, 200 mM potassium chloride, 0.2% BSA, pH 7.4) (40 μl) and 0.0625 U/ml human FXa (Enzyme Research Laboratories, Inc., dissolved in and diluted with Tris buffer) (10 μl) were put in each of the wells of a 96-well microplate. A 750 μM aqueous solution (40 μl) of S-2222 (Chromogenix Co.) was added. Absorbance at 405 nm was measured for 10 minutes at room temperature to determine an increase in absorbance (ΔOD/min). As a control, Tris buffer was used in place of the test compound.
The percent inhibition (%) calculated using the following equation at the final concentration of the test compound and the final concentration of the test compound were plotted on the ordinate and abscissa of logarithmic probability paper, respectively, to determine the 50% inhibition concentration (IC50 value) Percent inhibition (%)=[1−(ΔOD/min of test compound)÷(ΔOD/min of control)]×100

SMILES | IC50
CN1CCc2nc(C(=O)NC(CNC(=O)C(=O)Nc3ccc(Cl)cn3)C(=O)N3CCS(=O)(=O)CC3)sc2C1 (centres unmarked) [Example 2, N^1-(5-Chloropyridin-2-yl)-N^2-(3-(1,1-dioxothiomorpholin-4-yl)-2-{[(5-methyl-4,5,6,7-tetrahydrothiazolo[5,4-c]pyridin-2-yl)carbonyl]amino}-3-oxopropyl)ethanediamide hydrochloride] | 7.1 nM
CN1CCc2nc(C(=O)N[C@@H](CNC(=O)C(=O)Nc3ccc(Cl)cn3)C(=O)N(C)C)sc2C1 [Example 26, N^1-(5-Chloropyridin-2-yl)-N^2-((2S)-3-(dimethylamino)-2-{[(5-methyl-4,5,6,7-tetrahydrothiazolo[5,4-c]pyridin-2-yl)carbonyl]amino}-3-oxopropyl)ethanediamide hydrochloride] | 2.4 nM
CN1CCc2nc(C(=O)N[C@@H](CNC(=O)C(=O)Nc3ccc(Br)cn3)C(=O)N(C)C)sc2C1 [Example 37, N^1-(5-Bromopyridin-2-yl)-N^2-((2S)-3-(dimethylamino)-2-{[(5-methyl-4,5,6,7-tetrahydrothiazolo[5,4-c]pyridine-2-yl)carbonyl]amino}-3-oxopropyl)ethanediamide hydrochloride] | 1.5 nM
CN1CCc2nc(C(=O)N[C@@H](CNC(=O)C(=O)Nc3ccc(Br)cc3)C(=O)N(C)C)sc2C1 [Example 38, N^1-(4-Bromophenyl)-N^2-((2S)-3-(dimethylamino)-2-{[(5-methyl-4,5,6,7-tetrahydrothiazolo[5,4-c]pyridin-2-yl)carbonyl]amino}-3-oxopropyl)ethanediamide hydrochloride] | 0.81 nM
CN1CCc2nc(C(=O)N[C@@H](CNC(=O)C(=O)Nc3ccc(Cl)cc3)C(=O)N(C)C)sc2C1 [Example 39, N^1-(4-Chlorophenyl)-N^2-((2S)-3-(dimethylamino)-2-{[(5-methyl-4,5,6,7-tetrahydrothiazolo[5,4-c]pyridin-2-yl)carbonyl]amino}-3-oxopropyl)ethanediamide hydrochloride] | 0.86 nM
CN1CCc2nc(C(=O)N[C@@H](CNC(=O)C(=O)Nc3ccc(Cl)s3)C(=O)N(C)C)sc2C1 [Example 40, N^1-(5-Chlorothien-2-yl)-N^2-((2S)-3-(dimethylamino)-2-{[(5-methyl-4,5,6,7-tetrahydrothiazolo[5,4-c]pyridin-2-yl)carbonyl]amino}-3-oxopropyl)ethanediamide hydrochloride] | 1.3 nM
CN1CCc2nc(C(=O)N[C@@H](CNC(=O)C(=O)Nc3ccc(Cl)cc3)c3cnco3)sc2C1 [Example 62, N^1-(4-Chlorophenyl)-N^2-[(2S)-2-{[(5-methyl-4,5,6,7-tetrahydrothiazolo[5,4-c]pyridin-2-yl)carbonyl]amino}-2-(1,3-oxazol-5-yl)ethyl]ethanediamide hydrochloride] | 1.8 nM
C[C@@H](NC(=O)C(=O)Nc1ccc(Cl)cn1)[C@H](NC(=O)c1nc2c(s1)CN(C)CC2)C(=O)N(C)C [Example 66, N^1-(5-Chloropyridin-2-yl)-N^2-((1R,2S)-3-(dimethylamino)-1-methyl-2-{[(5-methyl-4,5,6,7-tetrahydrothiazlo [5,4-c]pyridin-2-yl)carbonyl]amino}-3-oxopropyl)ethanediamide hydrochloride] | 2 nM
